Experimental data: the NIST ThermoML archive (doi:10.1016/j.tca.2014.05.028)

Assay: xn = mol fraction of the nth substance listed
Conditions: 101 kPa, Liquid; for viscosity: Falling or rolling sphere viscometry; for mass density: Vibrating tube method

CCCC[N+]1(C)CCCC1.[Br-] [1-butyl-1-methylpyrrolidinium bromide] + O
Conditions | mass density, 323.15 K [kg/m3] | mass density, 328.15 K [kg/m3] | mass density, 333.15 K [kg/m3] | mass density, 338.15 K [kg/m3] | mass density, 343.15 K [kg/m3] | viscosity, 323.15 K [mPa·s] | viscosity, 328.15 K [mPa·s] | viscosity, 333.15 K [mPa·s] | viscosity, 338.15 K [mPa·s] | viscosity, 343.15 K [mPa·s]
x1 = 0.0265 | 1037.05 | 1034.23 | 1031.32 | 1028.4 | 1024.59 | 0.879 | 0.782 | 0.705 | 0.649 | 0.586
x1 = 0.0561 | 1078.21 | 1074.97 | 1071.61 | 1068.07 | 1065.42 | 1.42 | 1.244 | 1.1 | 0.997 | 0.887
x1 = 0.0871 | 1109.15 | 1105.64 | 1102.07 | 1098.46 | 1094.8 | 2.234 | 1.935 | 1.701 | 1.536 | 1.366
x1 = 0.1283 | 1138.27 | 1134.62 | 1130.94 | 1127.23 | 1123.48 | 3.762 | 3.23 | 2.817 | 2.525 | 2.229
x1 = 0.1645 | 1156.64 | 1152.97 | 1149.27 | 1145.56 | 1141.82 | 5.403 | 4.572 | 3.923 | 3.462 | 3.005
x1 = 0.2074 | 1172.59 | 1168.97 | 1165.34 | 1161.68 | 1158 | 7.915 | 6.602 | 5.554 | 4.89 | 4.186
x1 = 0.2525 | 1185.17 | 1181.63 | 1178.06 | 1174.49 | 1170.9 | 11.49 | 9.462 | 7.969 | 6.876 | 5.839
x1 = 0.28 | 1191.05 | 1187.55 | 1184.04 | 1180.52 | 1176.99 | 13.89 | 11.38 | 9.48 | 8.118 | 6.858
x1 = 0.3012 | 1195.06 | 1191.6 | 1188.13 | 1184.65 | 1181.16 | 16.27 | 13.25 | 10.97 | 9.372 | 7.882
x1 = 0.3254 | 1199.08 | 1195.67 | 1192.25 | 1188.82 | 1185.37 | 19.34 | 15.64 | 12.89 | 10.94 | 9.135
x1 = 1 | 1201.84 | 1198.05 | 1194.28 | 1190.53 | 1186.8 | – | – | – | – | –
